Measured values published in patent publication US9790253B2, “OSW-1 analogs and conjugates, and uses thereof” (priority 2011, dated 2017).

Columns and labels:
[1] = system: HeLa cells overexpressing OSBP1(M446W)-myc-his; assay: Overexpression-viability assay, OSBP1(M446W)-myc-his; assay type: cell-based; conditions: 48 h
Method: Overexpression-viability assays with wild-type and mutant OSBP/ORP4L constructs were carried out by transfecting HeLa cells with the appropriate plasmids using Lipofectamine™ LTX with PLUS™ reagent (Invitrogen) as instructed, and after 8 h of transfection, the cells were re-plated for the cell viability assay, performed as described above. Expression levels were evaluated by immunoblotting at the time of dosing.
For additional support that OSBP1 and ORP4L are targets of the ORPphilins, dominant drug-resistant alleles of these proteins were sought. 15 OSBP1 residues inside and outside the region of the protein previously reported to mediate sterol binding were mutated (FIG. 4C). The growth inhibition induced by the ORPphilins was determined in HeLa cells overexpressing either wild-type or mutant OSBP1-myc-his proteins. Expression of wt OSBP1-myc-his and mutant OSBP1-myc-his were nearly equivalent as measured by western blot.
The same mutant caused a 3.9-fold reduction in the antiproliferative activity of OSW-1 (2) (FIG. 4E2) and a 2.7-fold reduction in the activity of schweinfurthin A (4a) (FIG. 4E3). […] The antiproliferative activity of taxol was unaffected by expression of these two OSBP1 mutant proteins (FIGS. 4E4, 4E8).

OSBP1(V582M) = target: T1, OSBP1(V582M) (Homo sapiens, UniProt P22059, V582M); assay: [3H]-25-OHC binding, OSBP1(V582M) mutant; conditions: for binding affinity for OSBP1(V582M) compared to wt OSBP1-myc-his: [3H]-25-OHC competition binding
T1 construct: made in house; host or cells: HEK-293T (transient transfection; S100 lysate, not purified)
T1 sequence (P22059 1-807 V582M): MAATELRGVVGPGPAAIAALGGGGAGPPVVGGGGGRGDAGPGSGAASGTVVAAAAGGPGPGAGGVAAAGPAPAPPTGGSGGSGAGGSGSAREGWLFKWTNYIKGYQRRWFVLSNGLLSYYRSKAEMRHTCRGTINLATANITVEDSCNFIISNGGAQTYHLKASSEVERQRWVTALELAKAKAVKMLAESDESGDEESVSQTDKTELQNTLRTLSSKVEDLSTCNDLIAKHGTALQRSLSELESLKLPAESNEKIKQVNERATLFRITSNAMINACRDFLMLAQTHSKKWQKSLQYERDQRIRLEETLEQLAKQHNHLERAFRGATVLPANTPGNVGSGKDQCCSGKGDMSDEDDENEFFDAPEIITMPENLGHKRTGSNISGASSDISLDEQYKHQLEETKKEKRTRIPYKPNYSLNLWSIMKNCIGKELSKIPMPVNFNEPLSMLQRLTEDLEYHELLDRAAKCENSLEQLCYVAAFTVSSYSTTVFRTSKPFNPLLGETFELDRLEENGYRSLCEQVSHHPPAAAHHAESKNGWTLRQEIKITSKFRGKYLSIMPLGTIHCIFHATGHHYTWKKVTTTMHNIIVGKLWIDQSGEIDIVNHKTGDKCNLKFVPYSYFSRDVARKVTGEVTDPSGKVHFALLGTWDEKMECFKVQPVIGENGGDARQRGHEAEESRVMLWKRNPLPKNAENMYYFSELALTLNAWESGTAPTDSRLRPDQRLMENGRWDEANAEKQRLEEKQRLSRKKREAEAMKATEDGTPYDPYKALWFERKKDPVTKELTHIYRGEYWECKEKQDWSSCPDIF
Method: [^3H]-25-Hydroxycholesterol charcoal-dextran binding assay.
The binding affinity of 1, 2 and 4a to the OSBP1(M446W) and OSBP1(V582M) mutants were then determined using [^3H]-25-OHC competition binding. […] Within error limits, the binding affinity of 1, 2 and 4a for these two OSBP1 mutants were unchanged compared to wt OSBP1-myc-his (FIG. 4D).

HCT-116 cells = assay: Growth inhibition with 25-OHC co-administration; assay type: cell-based, human; conditions: for effect of 25-OHC co-administration on the antiproliferative activity: 10 μM 25-OHC for 1 and 2
Method: 25-OHC (11) is a high-affinity ligand of OSBP1 and ORP4L that is not cytotoxic at concentrations up to 10 μM. Example 1 established that the ORPphilins compete with 25-OHC for binding to OSBP1 and ORP4L (FIG. 2D,E). Therefore, if OSBP1 and ORP4L mediate the biological activities of these compounds, co-administration of sub-lethal doses of 25-OHC with the ORPphilins should inhibit binding of the ORPphilins to OSBP1 and ORP4L, thereby desensitizing cells to the cytotoxic effects of the ORPphilins.

NPC1^−/− (M12) CHO cells = assay: Antiproliferative activity in NPC1-/- (M12) CHO cells; assay type: cell-based
CHO-7 cells = assay: Antiproliferative activity in CHO-7 cells, lipoprotein-deficient media; assay type: cell-based
Excerpt: FIG. 4B is a bar graph depicting how removal of lipoproteins from the growth medium sensitizes CHO-7 cells to 25-OHC but not 1, 2, or 4a. Mean±s.d. of two individual experiments. Bref A, brefeldin A.
Insig is a chief regulator of SREBP-dependent cholesterol homeostasis, and 25-OHC exerts much of its ability to inhibit cholesterol biosynthesis through its binding to Insig. The possibility that suppression of the antiproliferative activity of the ORPphilins by 25-OHC could be due to displacement of these compounds from NPC1 or Insig was considered. […] In addition, the antiproliferative activity of 1-4a was evaluated in the CHO-7 cell line, which is a cell line adapted to grow in lipoprotein-deficient media. In lipoprotein-deficient media, CHO-7 cells are dependent on Insig-mediated cholesterol biosynthesis for survival, and are therefore sensitive to 25-OHC binding to Insig. Unlike 25-OHC, the antiproliferative activity of 1, 2, and 4a in CHO-7 cells was not enhanced in lipoprotein-deficient media.

Molecule | reduction in antiproliferative activity at the GI50 level, OSBP1(M446W) vs wt OSBP1 [1] | binding affinity for OSBP1(V582M) compared to wt OSBP1-myc-his (OSBP1(V582M)) | effect of 25-OHC co-administration on the antiproliferative activity (HCT-116 cells) | antiproliferative activity in NPC1−/− (M12) CHO cells compared to wt CHO cells (NPC1^−/− (M12) CHO cells) | antiproliferative activity in lipoprotein-deficient media (CHO-7 cells) | 25-OHC KD of OSBP1(V582M) compared to wt (OSBP1(V582M)) | cytotoxicity (HCT-116 cells; concentrations up to 10 μM, cell line not given at the place)
COc1ccc(C(=O)O[C@H]2[C@H](O[C@@H]3[C@@H](OC(C)=O)[C@H](O[C@H]4C[C@H]5[C@@H]6CC=C7C[C@@H](O)CC[C@]7(C)[C@H]6CC[C@]5(C)[C@@]4(O)[C@H](C)C(=O)CCC(C)C)OC[C@@H]3O)OC[C@@H](O)[C@@H]2O)cc1 [OSW-1] | 3.9 fold | unchanged | nearly complete desensitization | no change | not enhanced |  | 
schweinfurthin A | 2.7 fold | unchanged |  | no change | not enhanced |  | 
C[C@@H]1[C@]2(O[C@H]3C=C4[C@@H]5CC[C@H]6Cc7nc8c(nc7C[C@]6(C)[C@H]5C[C@@H](O)[C@]4(C)[C@]31O)C[C@@H]1CC[C@H]3C4=CC[C@@H]5[C@H](C)[C@@]6(OC[C@]45C(=O)C[C@@H]3[C@@]1(C)C8)OC(C)(C)C[C@H]6O)O[C@](C)(CO)C[C@H]2O [cephalostatin 1, Cephalostatin 1] | 18 fold | unchanged | nearly complete desensitization | no change | not enhanced |  | 
C[C@H](CCCC(C)(C)O)[C@H]1CC[C@H]2[C@@H]3CC=C4C[C@@H](O)CC[C@]4(C)[C@H]3CC[C@]12C [Compound 25-OHC, 25-hydroxycholesterol] |  |  |  |  |  | slightly higher | not cytotoxic
